{"source": "patent US11572369B2", "about": "“Bicyclic pyridine compositions and methods of using the same for cancer therapy” (UNIVERSITY OF SOUTH CAROLINA, priority 2019, dated 2023)", "assay_in_all_cases": "KINOMEscan", "type_in_all_cases": "binding", "details_in_all_cases": "2000 nM", "key": {"[1]": {"target": "T1, AAK1 (Homo sapiens, UniProt Q2M2I8)", "T1 construct": "DNA label (qPCR read-out); purchased DiscoverX (KINOMEscan service)"}, "[2]": {"target": "T2, ABL1(E255K)-phosphorylated (Homo sapiens, UniProt P00519, E255K)", "T2 construct": "DNA label (qPCR read-out); purchased DiscoverX (KINOMEscan service)", "T2 sequence (P00519 whole entry E255K)": "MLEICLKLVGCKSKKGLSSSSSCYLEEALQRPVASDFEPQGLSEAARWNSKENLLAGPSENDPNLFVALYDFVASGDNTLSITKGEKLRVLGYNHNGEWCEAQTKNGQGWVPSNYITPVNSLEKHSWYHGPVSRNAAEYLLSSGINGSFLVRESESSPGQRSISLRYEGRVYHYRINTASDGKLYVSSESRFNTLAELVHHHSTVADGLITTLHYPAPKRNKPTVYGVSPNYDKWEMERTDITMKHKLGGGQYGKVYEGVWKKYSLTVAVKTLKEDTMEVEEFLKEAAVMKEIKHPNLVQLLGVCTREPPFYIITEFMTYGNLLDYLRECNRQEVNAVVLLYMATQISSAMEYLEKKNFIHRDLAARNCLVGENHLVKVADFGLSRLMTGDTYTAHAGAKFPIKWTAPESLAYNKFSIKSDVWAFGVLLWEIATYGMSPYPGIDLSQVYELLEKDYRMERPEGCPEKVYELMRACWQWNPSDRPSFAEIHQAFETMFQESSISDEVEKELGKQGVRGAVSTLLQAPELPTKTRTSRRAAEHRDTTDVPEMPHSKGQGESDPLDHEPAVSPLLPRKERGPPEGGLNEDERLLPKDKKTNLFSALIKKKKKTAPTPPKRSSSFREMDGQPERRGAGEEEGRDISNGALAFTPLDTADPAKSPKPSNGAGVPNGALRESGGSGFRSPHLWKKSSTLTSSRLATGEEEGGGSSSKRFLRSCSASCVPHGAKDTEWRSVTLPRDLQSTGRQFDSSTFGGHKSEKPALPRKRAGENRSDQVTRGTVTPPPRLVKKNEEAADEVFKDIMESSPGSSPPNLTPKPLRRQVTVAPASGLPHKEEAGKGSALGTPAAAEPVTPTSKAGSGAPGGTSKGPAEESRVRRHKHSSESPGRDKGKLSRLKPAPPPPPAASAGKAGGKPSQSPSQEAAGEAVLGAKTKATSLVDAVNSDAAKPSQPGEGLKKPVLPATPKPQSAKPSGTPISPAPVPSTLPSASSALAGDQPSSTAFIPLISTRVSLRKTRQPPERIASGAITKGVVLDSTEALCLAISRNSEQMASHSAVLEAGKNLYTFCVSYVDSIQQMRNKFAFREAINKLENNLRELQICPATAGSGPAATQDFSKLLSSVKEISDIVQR"}, "[3]": {"target": "T3, AURKA (Homo sapiens, UniProt O14965)", "T3 construct": "DNA label (qPCR read-out); purchased KINOMEscan scanMAX panel (DiscoveRx)"}, "[4]": {"target": "T4, CAMK2G (Homo sapiens, UniProt Q13555)", "T4 construct": "DNA label (qPCR read-out); purchased KINOMEscan (ScanMAX panel service)"}, "[5]": {"target": "T5, CDK4-cyclinD3 (Homo sapiens, UniProt P11802)", "T5 construct": "purchased DiscoverX (KINOMEscan service)"}, "[6]": {"target": "T6, CDK8 (Homo sapiens, UniProt P49336)", "T6 construct": "DNA label (qPCR read-out); purchased DiscoverX (assay service)"}, "[7]": {"target": "T7, CSF1R-autoinhibited (Homo sapiens, UniProt P07333)", "T7 construct": "DNA label (for qPCR read-out); purchased DiscoveRx (KINOMEscan scanMAX service)", "T7 sequence (P07333 539-972 limits assumed)": "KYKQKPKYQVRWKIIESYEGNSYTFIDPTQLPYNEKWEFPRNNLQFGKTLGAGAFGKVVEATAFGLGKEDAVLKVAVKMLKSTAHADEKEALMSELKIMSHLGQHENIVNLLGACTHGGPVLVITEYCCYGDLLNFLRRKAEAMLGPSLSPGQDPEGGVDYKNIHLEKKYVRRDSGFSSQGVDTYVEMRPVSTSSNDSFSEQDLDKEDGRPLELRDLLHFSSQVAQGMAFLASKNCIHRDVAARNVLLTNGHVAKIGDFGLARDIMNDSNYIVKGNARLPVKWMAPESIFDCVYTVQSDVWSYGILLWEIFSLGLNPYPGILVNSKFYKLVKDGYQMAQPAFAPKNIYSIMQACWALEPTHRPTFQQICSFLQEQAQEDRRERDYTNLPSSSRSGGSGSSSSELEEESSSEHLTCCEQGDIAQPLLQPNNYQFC"}, "[8]": {"target": "T8, CSNK1G2 (Homo sapiens, UniProt P78368)", "T8 construct": "DNA label; purchased DiscoveRx (KINOMEscan scanMAX panel)"}, "[9]": {"target": "T9, EGFR(L858R,T790M) (Homo sapiens, UniProt P00533, L858R/T790M)", "T9 construct": "purchased DiscoveRx (KINOMEscan scanMAX panel)"}, "[10]": {"target": "T10, EPHA7 (Homo sapiens, UniProt Q15375)", "T10 construct": "purchased DiscoveRx (KINOMEscan scanMAX panel)"}, "[11]": {"target": "T11, ERK8 (Homo sapiens, UniProt Q8TD08)", "T11 construct": "DNA label (qPCR read-out); purchased DiscoveRx (KINOMEscan ScanMAX panel)"}, "[12]": {"target": "T12, FGFR3 (Homo sapiens, UniProt P22607)", "T12 construct": "purchased DiscoveRx (KINOMEscan scanMAX panel)", "T12 sequence (P22607 23-806)": "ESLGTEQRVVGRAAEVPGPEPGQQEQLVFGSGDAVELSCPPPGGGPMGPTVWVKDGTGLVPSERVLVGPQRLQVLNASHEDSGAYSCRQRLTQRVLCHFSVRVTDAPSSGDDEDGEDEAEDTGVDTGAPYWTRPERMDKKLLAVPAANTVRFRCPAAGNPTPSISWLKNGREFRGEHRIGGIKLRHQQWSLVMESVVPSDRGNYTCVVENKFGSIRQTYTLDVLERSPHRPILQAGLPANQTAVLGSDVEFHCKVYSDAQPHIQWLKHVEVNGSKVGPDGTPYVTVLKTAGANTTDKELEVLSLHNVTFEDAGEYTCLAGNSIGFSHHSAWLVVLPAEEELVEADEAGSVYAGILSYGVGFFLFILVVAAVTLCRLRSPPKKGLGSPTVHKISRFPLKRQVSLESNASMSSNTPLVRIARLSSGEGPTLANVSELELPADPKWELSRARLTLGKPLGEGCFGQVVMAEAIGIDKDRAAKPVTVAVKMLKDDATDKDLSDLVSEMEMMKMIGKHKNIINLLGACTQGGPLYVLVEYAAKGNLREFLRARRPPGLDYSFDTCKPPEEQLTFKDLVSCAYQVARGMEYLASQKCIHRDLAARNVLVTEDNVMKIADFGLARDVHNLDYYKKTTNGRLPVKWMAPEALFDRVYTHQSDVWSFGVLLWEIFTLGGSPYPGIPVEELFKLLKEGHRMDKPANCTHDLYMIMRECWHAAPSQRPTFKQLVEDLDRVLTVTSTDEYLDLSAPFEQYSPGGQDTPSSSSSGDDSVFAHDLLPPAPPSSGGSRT"}, "[13]": {"target": "T13, GAK (Homo sapiens, UniProt O14976)", "T13 construct": "purchased KINOMEscan (DiscoveRx)"}, "[14]": {"target": "T14, KIT (Homo sapiens, UniProt P10721)", "T14 construct": "DNA label (for qPCR read-out); purchased DiscoveRx (KINOMEscan scanMAX panel)", "T14 sequence (P10721 26-976)": "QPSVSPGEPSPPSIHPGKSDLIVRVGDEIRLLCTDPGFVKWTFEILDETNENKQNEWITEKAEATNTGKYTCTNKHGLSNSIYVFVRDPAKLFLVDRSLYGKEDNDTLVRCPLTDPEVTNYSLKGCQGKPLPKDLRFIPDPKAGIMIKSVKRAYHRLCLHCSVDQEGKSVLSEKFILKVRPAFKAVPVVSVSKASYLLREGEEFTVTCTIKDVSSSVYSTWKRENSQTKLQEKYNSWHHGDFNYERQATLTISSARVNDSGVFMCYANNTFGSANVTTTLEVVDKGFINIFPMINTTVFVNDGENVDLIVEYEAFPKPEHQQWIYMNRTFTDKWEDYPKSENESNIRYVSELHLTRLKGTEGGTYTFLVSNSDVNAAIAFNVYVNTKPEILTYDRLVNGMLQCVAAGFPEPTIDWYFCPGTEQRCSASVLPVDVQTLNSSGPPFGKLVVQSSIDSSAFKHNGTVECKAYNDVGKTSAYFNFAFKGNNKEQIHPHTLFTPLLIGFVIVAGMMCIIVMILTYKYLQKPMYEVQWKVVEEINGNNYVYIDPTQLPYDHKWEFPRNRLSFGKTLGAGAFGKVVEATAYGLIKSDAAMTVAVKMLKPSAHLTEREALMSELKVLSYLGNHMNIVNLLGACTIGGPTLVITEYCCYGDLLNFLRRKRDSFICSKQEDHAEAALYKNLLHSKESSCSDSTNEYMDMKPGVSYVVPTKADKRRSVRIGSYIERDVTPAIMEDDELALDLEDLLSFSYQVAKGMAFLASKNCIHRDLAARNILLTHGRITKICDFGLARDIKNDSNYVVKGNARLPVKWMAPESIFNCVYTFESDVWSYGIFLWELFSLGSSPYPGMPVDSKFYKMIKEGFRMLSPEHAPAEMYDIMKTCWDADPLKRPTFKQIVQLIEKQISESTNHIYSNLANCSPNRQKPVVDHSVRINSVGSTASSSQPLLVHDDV"}, "[15]": {"target": "T15, KIT(L576P) (Homo sapiens, UniProt P10721, L576P)", "T15 construct": "DNA label (for qPCR read-out); purchased DiscoveRx (KINOMEscan scanMAX panel)", "T15 sequence (P10721 26-976 L576P)": "as the sequence (P10721 26-976) above, with L551P counted along it"}, "[16]": {"target": "LZK (Homo sapiens, UniProt O43283)"}, "[17]": {"target": "T16, (Homo sapiens, UniProt P20794)", "T16 construct": "DNA label (qPCR read-out); purchased DiscoverX (KINOMEscan service)"}, "[18]": {"target": "T17, MAP3K1 (Homo sapiens, UniProt Q13233)", "T17 construct": "DNA label (qPCR read-out); purchased DiscoverX (KINOMEscan service)"}, "[19]": {"target": "MAP3K4 (Homo sapiens, UniProt Q9Y6R4)"}, "[20]": {"target": "T18, MET(Y1235D) (Homo sapiens, UniProt P08581, Y1235D)", "T18 construct": "purchased DiscoveRx (KINOMEscan scanMAX panel, service)"}, "[21]": {"target": "T19, MINK (Homo sapiens, UniProt Q8N4C8)", "T19 construct": "DNA label (qPCR read-out); purchased KINOMEscan scanMAX panel (DiscoveRx)"}, "[22]": {"target": "T20, NDR1 (Homo sapiens, UniProt Q15208)", "T20 construct": "DNA label (for qPCR read-out); purchased KINOMEscan scanMAX panel (DiscoveRx)"}, "[23]": {"target": "T21, PIK3CA(M1043I) (Homo sapiens, UniProt P42336, M1043I)", "T21 construct": "DNA label; purchased DiscoveRx (KINOMEscan scanMAX panel)"}, "[24]": {"target": "T22, PIK3CG (Homo sapiens, UniProt P48736)", "T22 construct": "DNA label; purchased DiscoveRx (KINOMEscan scanMAX panel)"}, "[25]": {"target": "T23, PIM1 (Homo sapiens, UniProt P11309)", "T23 construct": "DNA label (qPCR read-out); purchased KINOMEscan (DiscoveRx) panel"}, "[26]": {"target": "T24, PIM3 (Homo sapiens, UniProt Q86V86)", "T24 construct": "DNA label (qPCR read-out); purchased KINOMEscan (DiscoveRx) panel"}, "[27]": {"target": "T25, PLK4 (Homo sapiens, UniProt O00444)", "T25 construct": "purchased DiscoveRx (KINOMEscan scanMAX panel)"}, "[28]": {"target": "T26, PRKCI (Homo sapiens, UniProt P41743)", "T26 construct": "purchased DiscoveRx (KINOMEscan scanMAX panel)"}, "[29]": {"target": "T27, PRKD3 (Homo sapiens, UniProt O94806)", "T27 construct": "purchased DiscoveRx (KINOMEscan scanMAX panel)"}, "[30]": {"target": "T28, RET(V804M) (Homo sapiens, UniProt P07949, V804M)", "T28 construct": "purchased DiscoveRx (KINOMEscan scanMAX panel)", "T28 sequence (P07949 29-1114 V804M)": "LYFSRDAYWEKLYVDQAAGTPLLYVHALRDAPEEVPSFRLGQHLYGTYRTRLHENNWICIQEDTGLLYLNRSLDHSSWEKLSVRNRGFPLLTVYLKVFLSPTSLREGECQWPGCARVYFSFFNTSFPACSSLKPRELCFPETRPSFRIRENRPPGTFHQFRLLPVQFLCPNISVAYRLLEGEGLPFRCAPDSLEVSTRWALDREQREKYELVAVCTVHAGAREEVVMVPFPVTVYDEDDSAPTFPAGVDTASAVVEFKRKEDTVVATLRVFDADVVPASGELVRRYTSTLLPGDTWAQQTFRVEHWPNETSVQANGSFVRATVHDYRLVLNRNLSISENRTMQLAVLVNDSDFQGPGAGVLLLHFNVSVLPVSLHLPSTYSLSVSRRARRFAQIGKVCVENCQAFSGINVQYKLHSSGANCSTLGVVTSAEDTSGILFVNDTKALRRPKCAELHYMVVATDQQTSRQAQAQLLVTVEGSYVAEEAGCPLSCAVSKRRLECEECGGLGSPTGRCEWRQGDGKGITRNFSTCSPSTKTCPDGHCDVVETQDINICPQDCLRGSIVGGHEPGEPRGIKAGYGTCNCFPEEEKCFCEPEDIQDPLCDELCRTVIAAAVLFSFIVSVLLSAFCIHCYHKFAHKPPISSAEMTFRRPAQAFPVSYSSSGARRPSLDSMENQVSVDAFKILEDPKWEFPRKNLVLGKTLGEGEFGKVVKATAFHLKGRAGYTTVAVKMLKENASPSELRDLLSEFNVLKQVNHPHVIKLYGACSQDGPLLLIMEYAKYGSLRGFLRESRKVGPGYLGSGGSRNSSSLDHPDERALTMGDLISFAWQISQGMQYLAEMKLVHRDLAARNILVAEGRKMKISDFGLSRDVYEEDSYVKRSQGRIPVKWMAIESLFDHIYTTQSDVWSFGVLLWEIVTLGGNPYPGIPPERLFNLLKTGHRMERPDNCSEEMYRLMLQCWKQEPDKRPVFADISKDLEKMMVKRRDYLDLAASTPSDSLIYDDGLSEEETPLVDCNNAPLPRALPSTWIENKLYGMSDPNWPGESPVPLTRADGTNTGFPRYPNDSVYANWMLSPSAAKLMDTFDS"}, "[31]": {"target": "T29, RSK4(Kin.Dom.1-N-terminal) (Homo sapiens, UniProt Q9UK32)", "T29 construct": "RSK4(Kin.Dom.1); purchased DiscoveRx (KINOMEscan scanMAX panel)"}, "[32]": {"target": "T30, SgK110 (Homo sapiens, UniProt P0C264)", "T30 construct": "purchased DiscoveRx (KINOMEscan scanMAX panel)"}, "[33]": {"target": "T31, SIK2 (Homo sapiens, UniProt Q9H0K1)", "T31 construct": "purchased KINOMEscan (DiscoveRx)"}, "[34]": {"target": "T32, VPS34 (Homo sapiens, UniProt Q8NEB9)", "T32 construct": "DNA label (for qPCR read-out); purchased DiscoveRx (KINOMEscan scanMAX panel)"}, "[35]": {"target": "T33, YSK1 (Homo sapiens, UniProt O00506)", "T33 construct": "purchased KINOMEscan (DiscoveRx) panel service", "T33 sequence (O00506 whole entry)": "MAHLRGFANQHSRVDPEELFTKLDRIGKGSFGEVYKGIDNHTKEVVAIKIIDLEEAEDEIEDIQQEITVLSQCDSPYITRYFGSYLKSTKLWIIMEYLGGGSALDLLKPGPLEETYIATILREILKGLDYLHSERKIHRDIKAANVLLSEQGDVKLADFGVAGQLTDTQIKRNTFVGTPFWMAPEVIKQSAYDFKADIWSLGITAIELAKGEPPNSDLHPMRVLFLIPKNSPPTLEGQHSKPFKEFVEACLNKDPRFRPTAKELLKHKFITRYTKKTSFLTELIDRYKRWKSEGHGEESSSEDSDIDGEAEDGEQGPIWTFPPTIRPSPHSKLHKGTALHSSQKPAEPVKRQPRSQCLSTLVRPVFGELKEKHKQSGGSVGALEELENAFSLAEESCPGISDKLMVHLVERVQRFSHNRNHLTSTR"}}, "data": [{"smiles": "[2H]C([2H])([2H])N(C(=O)c1ccc(N2CCCN(c3ccnc4sc(C(N)=O)c(N)c34)CC2)cc1)C([2H])([2H])[2H]", "note": "[15u_D6, 3-amino-4-(4-(4-(bis(methyl-d3)carbamoyl)phenyl)-1,4-diazepan-1-yl)thieno[2,3-b]pyridine-2-carboxamide]", "values": [{"measurement": "% Ctrl", "setting": "[1]", "value": 90, "unit": "% Ctrl"}, {"measurement": "% Ctrl", "setting": "[2]", "value": 82, "unit": "% Ctrl"}, {"measurement": "% Ctrl", "setting": "[3]", "value": 99, "unit": "% Ctrl"}, {"measurement": "% Ctrl", "setting": "[4]", "value": 100, "unit": "% Ctrl"}, {"measurement": "% Ctrl", "setting": "[5]", "value": 97, "unit": "% Ctrl"}, {"measurement": "% Ctrl", "setting": "[6]", "value": 0.25, "unit": "% Ctrl"}, {"measurement": "% Ctrl", "setting": "[7]", "value": 83, "unit": "% Ctrl"}, {"measurement": "% Ctrl", "setting": "[8]", "value": 69, "unit": "% Ctrl"}, {"measurement": "% Ctrl", "setting": "[9]", "value": 87, "unit": "% Ctrl"}, {"measurement": "% Ctrl", "setting": "[10]", "value": 81, "unit": "% Ctrl"}, {"measurement": "% Ctrl", "setting": "[11]", "value": 99, "unit": "% Ctrl"}, {"measurement": "% Ctrl", "setting": "[12]", "value": 99, "unit": "% Ctrl"}, {"measurement": "% Ctrl", "setting": "[13]", "value": 94, "unit": "% Ctrl"}, {"measurement": "% Ctrl", "setting": "[14]", "value": 95, "unit": "% Ctrl"}, {"measurement": "% Ctrl", "setting": "[15]", "value": 75, "unit": "% Ctrl"}, {"measurement": "% Ctrl", "setting": "[16]", "value": 87, "unit": "% Ctrl"}, {"measurement": "% Ctrl", "setting": "[17]", "value": 91, "unit": "% Ctrl"}, {"measurement": "% Ctrl", "setting": "[18]", "value": 90, "unit": "% Ctrl"}, {"measurement": "% Ctrl", "setting": "[19]", "value": 100, "unit": "% Ctrl"}, {"measurement": "% Ctrl", "setting": "[20]", "value": 100, "unit": "% Ctrl"}, {"measurement": "% Ctrl", "setting": "[21]", "value": 87, "unit": "% Ctrl"}, {"measurement": "% Ctrl", "setting": "[22]", "value": 80, "unit": "% Ctrl"}, {"measurement": "% Ctrl", "setting": "[23]", "value": 95, "unit": "% Ctrl"}, {"measurement": "% Ctrl", "setting": "[24]", "value": 76, "unit": "% Ctrl"}, {"measurement": "% Ctrl", "setting": "[25]", "value": 100, "unit": "% Ctrl"}, {"measurement": "% Ctrl", "setting": "[26]", "value": 98, "unit": "% Ctrl"}, {"measurement": "% Ctrl", "setting": "[27]", "value": 92, "unit": "% Ctrl"}, {"measurement": "% Ctrl", "setting": "[28]", "value": 100, "unit": "% Ctrl"}, {"measurement": "% Ctrl", "setting": "[29]", "value": 100, "unit": "% Ctrl"}, {"measurement": "% Ctrl", "setting": "[30]", "value": 100, "unit": "% Ctrl"}, {"measurement": "% Ctrl", "setting": "[31]", "value": 80, "unit": "% Ctrl"}, {"measurement": "% Ctrl", "setting": "[32]", "value": 100, "unit": "% Ctrl"}, {"measurement": "% Ctrl", "setting": "[33]", "value": 100, "unit": "% Ctrl"}, {"measurement": "% Ctrl", "setting": "[34]", "value": 65, "unit": "% Ctrl"}, {"measurement": "% Ctrl", "setting": "[35]", "value": 98, "unit": "% Ctrl"}]}, {"smiles": "CN(C)C(=O)c1ccc(N2CCCN(c3ccnc4sc(C(N)=O)c(N)c34)CC2)cc1", "note": "[15u, 3-amino-4-(4-(4-(dimethylcarbamoyl)phenyl)-1,4-diazepan-1-yl)thieno[2,3-b]pyridine-2-carboxamide]", "values": [{"measurement": "% Ctrl", "setting": "[1]", "value": 94, "unit": "% Ctrl"}, {"measurement": "% Ctrl", "setting": "[2]", "value": 100, "unit": "% Ctrl"}, {"measurement": "% Ctrl", "setting": "[3]", "value": 98, "unit": "% Ctrl"}, {"measurement": "% Ctrl", "setting": "[4]", "value": 100, "unit": "% Ctrl"}, {"measurement": "% Ctrl", "setting": "[5]", "value": 95, "unit": "% Ctrl"}, {"measurement": "% Ctrl", "setting": "[6]", "value": 2.6, "unit": "% Ctrl"}, {"measurement": "% Ctrl", "setting": "[7]", "value": 88, "unit": "% Ctrl"}, {"measurement": "% Ctrl", "setting": "[8]", "value": 77, "unit": "% Ctrl"}, {"measurement": "% Ctrl", "setting": "[9]", "value": 100, "unit": "% Ctrl"}, {"measurement": "% Ctrl", "setting": "[10]", "value": 92, "unit": "% Ctrl"}, {"measurement": "% Ctrl", "setting": "[11]", "value": 98, "unit": "% Ctrl"}, {"measurement": "% Ctrl", "setting": "[12]", "value": 98, "unit": "% Ctrl"}, {"measurement": "% Ctrl", "setting": "[13]", "value": 88, "unit": "% Ctrl"}, {"measurement": "% Ctrl", "setting": "[14]", "value": 95, "unit": "% Ctrl"}, {"measurement": "% Ctrl", "setting": "[15]", "value": 96, "unit": "% Ctrl"}, {"measurement": "% Ctrl", "setting": "[16]", "value": 100, "unit": "% Ctrl"}, {"measurement": "% Ctrl", "setting": "[17]", "value": 100, "unit": "% Ctrl"}, {"measurement": "% Ctrl", "setting": "[18]", "value": 84, "unit": "% Ctrl"}, {"measurement": "% Ctrl", "setting": "[19]", "value": 90, "unit": "% Ctrl"}, {"measurement": "% Ctrl", "setting": "[20]", "value": 100, "unit": "% Ctrl"}, {"measurement": "% Ctrl", "setting": "[21]", "value": 100, "unit": "% Ctrl"}, {"measurement": "% Ctrl", "setting": "[22]", "value": 100, "unit": "% Ctrl"}, {"measurement": "% Ctrl", "setting": "[23]", "value": 96, "unit": "% Ctrl"}, {"measurement": "% Ctrl", "setting": "[24]", "value": 79, "unit": "% Ctrl"}, {"measurement": "% Ctrl", "setting": "[25]", "value": 88, "unit": "% Ctrl"}, {"measurement": "% Ctrl", "setting": "[26]", "value": 89, "unit": "% Ctrl"}, {"measurement": "% Ctrl", "setting": "[27]", "value": 95, "unit": "% Ctrl"}, {"measurement": "% Ctrl", "setting": "[28]", "value": 100, "unit": "% Ctrl"}, {"measurement": "% Ctrl", "setting": "[29]", "value": 94, "unit": "% Ctrl"}, {"measurement": "% Ctrl", "setting": "[30]", "value": 100, "unit": "% Ctrl"}, {"measurement": "% Ctrl", "setting": "[31]", "value": 78, "unit": "% Ctrl"}, {"measurement": "% Ctrl", "setting": "[32]", "value": 95, "unit": "% Ctrl"}, {"measurement": "% Ctrl", "setting": "[33]", "value": 96, "unit": "% Ctrl"}, {"measurement": "% Ctrl", "setting": "[34]", "value": 85, "unit": "% Ctrl"}, {"measurement": "% Ctrl", "setting": "[35]", "value": 76, "unit": "% Ctrl"}]}]}
